From US11654199B2 (BOLT BIOTHERAPEUTICS, INC., priority 2019, dated 2023) come the findings set out here.

The target of one assay is T1, human TLR7 (Homo sapiens, UniProt Q9NYK1).
T1 construct: host or cells: HEK293 reporter cells
T1 sequence (Q9NYK1 27-1049): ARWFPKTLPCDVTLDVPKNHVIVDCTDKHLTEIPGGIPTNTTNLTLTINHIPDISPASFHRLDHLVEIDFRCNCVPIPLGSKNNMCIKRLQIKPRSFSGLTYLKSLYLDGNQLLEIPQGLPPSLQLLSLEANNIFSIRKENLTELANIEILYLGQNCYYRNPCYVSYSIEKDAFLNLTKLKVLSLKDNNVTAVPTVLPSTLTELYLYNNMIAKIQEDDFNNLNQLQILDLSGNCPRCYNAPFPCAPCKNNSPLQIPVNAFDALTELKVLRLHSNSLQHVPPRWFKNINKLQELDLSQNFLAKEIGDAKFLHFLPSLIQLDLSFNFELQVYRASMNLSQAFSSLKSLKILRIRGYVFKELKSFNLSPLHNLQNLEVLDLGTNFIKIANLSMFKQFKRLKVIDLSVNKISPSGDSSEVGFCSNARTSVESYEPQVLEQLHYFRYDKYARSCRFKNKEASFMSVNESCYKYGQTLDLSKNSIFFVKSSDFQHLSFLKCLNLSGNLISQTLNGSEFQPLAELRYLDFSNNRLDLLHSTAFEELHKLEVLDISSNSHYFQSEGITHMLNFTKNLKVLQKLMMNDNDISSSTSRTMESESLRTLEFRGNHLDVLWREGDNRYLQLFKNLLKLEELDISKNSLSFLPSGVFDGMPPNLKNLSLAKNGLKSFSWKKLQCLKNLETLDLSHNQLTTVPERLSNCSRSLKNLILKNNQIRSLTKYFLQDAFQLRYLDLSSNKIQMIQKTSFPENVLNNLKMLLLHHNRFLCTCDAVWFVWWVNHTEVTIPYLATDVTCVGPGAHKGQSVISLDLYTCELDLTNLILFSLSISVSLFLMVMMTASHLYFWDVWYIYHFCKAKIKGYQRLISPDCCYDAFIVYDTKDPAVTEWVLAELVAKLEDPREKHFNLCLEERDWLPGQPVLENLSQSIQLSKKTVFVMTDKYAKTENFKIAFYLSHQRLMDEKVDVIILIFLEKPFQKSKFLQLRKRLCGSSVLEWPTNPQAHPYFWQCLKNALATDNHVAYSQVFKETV
The experiment in a line: HEK293 NFKB reporter assay, human TLR7. Format: cell-based. To be noted: HEK293 NFKB reporter cells expressing human TLR7; read-out: HEK293 hTLR7 EC50. In outline:
(§1)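 HEK293 NF-κB reporter cells expressing human TLR7 or TLR8 were seeded at 4×10^4 cells/well in HEK detection medium containing the stimulatory molecules. Reporter activity was read by absorbance at 620-655 nm.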
A general note: A reporter such as luciferase makes a cellular process visible.

The target of another assay is T2, human TLR8 (Homo sapiens, UniProt Q9NR97).
T2 construct: host or cells: HEK293 reporter cells
T2 sequence (Q9NR97 27-1041): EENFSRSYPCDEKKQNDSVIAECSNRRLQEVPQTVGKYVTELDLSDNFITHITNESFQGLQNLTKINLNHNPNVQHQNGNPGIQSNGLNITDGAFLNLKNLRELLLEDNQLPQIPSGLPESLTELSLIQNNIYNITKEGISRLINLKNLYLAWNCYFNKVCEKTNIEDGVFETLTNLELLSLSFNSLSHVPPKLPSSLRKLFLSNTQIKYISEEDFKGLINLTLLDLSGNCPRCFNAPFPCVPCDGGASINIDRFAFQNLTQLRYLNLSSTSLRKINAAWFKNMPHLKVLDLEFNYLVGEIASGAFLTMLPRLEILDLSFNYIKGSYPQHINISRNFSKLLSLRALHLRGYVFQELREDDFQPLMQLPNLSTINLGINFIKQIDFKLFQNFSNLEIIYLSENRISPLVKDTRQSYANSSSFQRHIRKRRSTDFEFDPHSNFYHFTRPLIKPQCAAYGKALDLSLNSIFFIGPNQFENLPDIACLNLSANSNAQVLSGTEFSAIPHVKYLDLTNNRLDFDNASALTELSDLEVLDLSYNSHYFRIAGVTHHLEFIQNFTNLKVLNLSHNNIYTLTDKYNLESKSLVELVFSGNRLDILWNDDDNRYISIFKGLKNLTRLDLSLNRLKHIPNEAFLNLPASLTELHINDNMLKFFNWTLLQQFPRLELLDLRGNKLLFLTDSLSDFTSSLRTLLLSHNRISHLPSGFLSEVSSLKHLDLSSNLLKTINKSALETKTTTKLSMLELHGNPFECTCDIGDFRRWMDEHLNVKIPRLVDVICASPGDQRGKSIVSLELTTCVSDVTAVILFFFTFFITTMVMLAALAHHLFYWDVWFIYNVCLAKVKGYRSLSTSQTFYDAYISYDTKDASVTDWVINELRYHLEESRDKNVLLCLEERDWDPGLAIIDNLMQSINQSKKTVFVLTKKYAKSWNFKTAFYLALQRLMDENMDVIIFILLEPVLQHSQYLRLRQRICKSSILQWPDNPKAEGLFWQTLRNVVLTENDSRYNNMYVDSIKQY
Briefly: HEK293 NFKB reporter assay, human TLR8. Format: cell-based. As to conditions: HEK293 NFKB reporter cells expressing human TLR8; read-out: HEK293 hTLR8 EC50. In outline:
as §1

Take `CCCN(OCC)C(=O)C1=Cc2sc(CN3CC[C@@H]4[C@H](C3)CN4C(=O)OC(C)(C)C)cc2N=C(N)C1` [TAZ-228]: the values for the 50% effective concentration (EC50) at human TLR7 and on human TLR8 were 3.76 µM and 3.24 µM, respectively.
The corresponding values for `CCCN(OCC)C(=O)C1=Cc2sc(CN3CCC(N)C3)cc2N=C(N)C1` (stereo not drawn) [TAZ-234] are 3.33 µM and 0.361 µM.
For the compound `CCCN(OCC)C(=O)C1=Cc2sc(CC3CCNC3)cc2N=C(N)C1` (stereo not drawn) [TAZ-236], the EC50 (in general, the concentration needed to bring the measured effect to its halfway point) at human TLR7 turned out to be 2.22 µM; on human TLR8, 0.423 µM.
Take `CCCN(OCCNC(=O)OC1CCC1)C(=O)C1=Cc2sc(CC3CNC3)cc2N=C(N)C1` [TAZ-238, cyclobutyl N-[2-[[5-amino-2-(azetidin-3-ylmethyl)-6H-thieno[3,2-b]azepine-7-carbonyl]-propyl-amino]oxyethyl]carbamate]: the EC50 is 0.112 µM on human TLR7 and 0.286 µM on human TLR8.
For `CCCN(OCC)C(=O)C1=Cc2sc(CN3CCC4(CCNC4)CC3)cc2N=C(N)C1` [TAZ-240] the same measures were 4.25 µM and 5.46 µM.
For `CCCN(OCC)C(=O)C1=Cc2sc(CN3CC4CCC(C3)N4C(=O)OC(C)(C)C)cc2N=C(N)C1` [TAZ-241] the same measures were 2.81 µM and 3.06 µM.
The corresponding values for `CCCN(OCC)C(=O)C1=Cc2sc(CCCN3CCNCC3)cc2N=C(N)C1` [TAZ-244] are 2.46 µM and 0.146 µM.
In the case of `CCCN(OCC)C(=O)C1=Cc2sc(CN3CC4CCC(C3)N4)cc2N=C(N)C1` [TAZ-245], the results for the 50% effective concentration (EC50) on human TLR7 and on human TLR8 were 5.02 µM and 0.145 µM, respectively.
`CCCN(OC(C)C)C(=O)C1=Cc2sc(CC3CN(C(=O)OC(C)(C)C)C3)cc2N=C(N)C1` [TAZ-249]: the figures for the EC50 at human TLR7 and on human TLR8 were 0.362 µM and 0.64 µM, respectively.
The corresponding values for `CCCN(OCC)C(=O)C1=Cc2sc(CC3CN(C(C)=O)C3)cc2N=C(N)C1` [TAZ-252] are 4.45 µM and 0.868 µM.
For `CCCN(OC(C)C)C(=O)C1=Cc2sc(CC3CNC3)cc2N=C(N)C1` [TAZ-253, 5-amino-2-(azetidin-3-ylmethyl)-N-isopropoxy-N-propyl-6H-thieno[3,2-b]azepine-7-carboxamide] the same measures were 7.17 µM and 0.192 µM.
For the compound `CCON(C(=O)C1=Cc2sc(CC3CN(C(=O)OC(C)(C)C)C3)cc2N=C(N)C1)C(C)CC` (stereo not drawn) [TAZ-254], the EC50 came to 8.13 µM at human TLR7 and 8.27 µM at human TLR8.
